Test results from PMC7582725, “Suppression of hTAS2R16 Signaling by Umami Substances” (International Journal of Molecular Sciences, 2020).
Numbering of substitutions follows the chain as printed. Several values for one entry are separate records, joined by “and”; a condition that tells them apart may be missing. Identical values can stand only once. Counter-ions that a name gives are not always drawn. Like-named read-outs stand apart in the source and are kept apart here. Where a SMILES comes first, the peptide text is derived from it.

What was measured:
hTAS2R16 N96T = target: T1, hTAS2R16 N96T (Homo sapiens, UniProt Q9NYV7, N96T); test: Cellular Ca2+ response, cell-based assay in HEK293T cells expressing probenecid-insensitive mutant hTAS2R16 N96T
T1 construct: expressed in transfected cells; host or cells: HEK293T
T1 sequence (Q9NYV7 1-291 N96T): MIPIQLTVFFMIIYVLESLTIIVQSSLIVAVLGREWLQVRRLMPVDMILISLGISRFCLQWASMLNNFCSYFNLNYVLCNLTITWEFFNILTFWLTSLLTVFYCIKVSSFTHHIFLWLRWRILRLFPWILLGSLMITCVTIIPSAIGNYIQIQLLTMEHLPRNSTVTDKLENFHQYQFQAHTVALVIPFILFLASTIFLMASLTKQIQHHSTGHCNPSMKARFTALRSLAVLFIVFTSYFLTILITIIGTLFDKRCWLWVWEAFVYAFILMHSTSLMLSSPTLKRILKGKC
Description: (§1) HEK293T cells were purchased from American Type Culture Collection (ATCC; Manassas, VA, USA) and cultured as described previously. The plasmids hTAS2R16 and G16αgust44 were constructed as described previously. G16αgust44 and hTAS2R16 were cloned into a cytomegalovirus promoter-based vector and expressed constitutively. Point mutants of N96T and P44T on hTAS2R16 clone and DNA sequencings were performed by Macrogen (Geumcheon-gu, Seoul, Korea). The hTAS2R16 or point mutant expression plasmid was co-transfected with G16αgust44 expression plasmid (4:1) into HEK293T cells using Lipofectamine 2000 (Invitrogen, Carlsbad, CA, USA).
(§2) The umami substances-induced changes in the cytosolic Ca^2+ concentration were measured using a FlexStation III microplate reader (Molecular Devices, Sunnyvale, CA, USA). HEK293T cells transfected with hTAS2R16 were seeded onto 96-well black-wall CellBind surface plates (Corning, NY, USA) for 18–24 h before use. […] The cells were incubated in the dark for 30 min at 37 °C, and then for 15 min at 27 °C in assay buffer consisting of Calcium-4 (FLIPR Calcium 4 Assay Kit, Molecular Devices) and probenecid or the umami compounds. Following treatment, the fluorescence intensity (excitation, 486 nm; emission, 525 nm) of the cell was measured. The relative changes in cell Ca^2+ were plotted as ΔF/F0 on the y-axis, where ΔF is the change in Calcium-4 fluorescence intensity at each time point and F0 is the fluorescence intensity before treatment. The relative response induced by 10 mM salicin was assigned a value of 100.

hTAS2R16 P44T = target: T2, hTAS2R16 P44T (Homo sapiens, UniProt Q9NYV7, P44T); test: Cellular Ca2+ response, cell-based assay in HEK293T cells expressing probenecid-insensitive mutant hTAS2R16 P44T
T2 construct: expressed in transfected cells; host or cells: HEK293T
T2 sequence (Q9NYV7 1-291 P44T): T1 sequence (Q9NYV7 1-291 N96T) with P44T, T96N
Description: as §1, §2

hTAS2R16 [1] = target: T3, hTAS2R16 (Homo sapiens, UniProt Q9NYV7); test: Cellular Ca2+ response, cell-based assay (Calcium-4, FlexStation III) in HEK293T cells co-expressing wild-type hTAS2R16 and G16αgust44; conditions: for synergistic effect with IMP on suppression of salicin response: 10 mM salicin, graded IMP below or at 10 mM; for mechanism of antagonism at hTAS2R16: from salicin concentration–response curves at graded antagonist concentrations
T3 construct: expressed in transfected cells; host or cells: HEK293T
T3 sequence (Q9NYV7 1-291): T1 sequence (Q9NYV7 1-291 N96T) with T96N
Description: as §1, §2

hTAS2R16 [2] = target: T3, hTAS2R16; test: Ca2+ response of hTAS2R16-expressing HEK293T cells to bitter ligands in absence and presence of umami substances (Figure 1; fura-2 F340/F380 imaging / cell-based assay); conditions: for Ca2+ response of cells expressing TAS2R16 on stimulation with ligand: Figure 1D,E; for inhibition of Ca2+ response to arbutin: 5 mM arbutin; for inhibition of Ca2+ response to arbutin / inhibition of Ca2+ response to phenyl β-D-glucopyranoside: MSG 80 mM, IMP 20 mM, L-theanine 80 mM; for inhibition of Ca2+ response to arbutin / reduction of intracellular Ca2+ influx evoked by salicin / inhibition of Ca2+ response to phenyl β-D-glucopyranoside: Glu-Glu 6 mM, Gly-Gly 6 mM; for reduction of intracellular Ca2+ influx evoked by salicin: 10 mM salicin, MSG 10 and 80 mM, IMP 10 and 20 mM, L-theanine 10 and 80 mM, probenecid 0.1 and 0.3 mM
Description: We first verified if non-peptide umami substances affect the downstream signaling mechanism, such as changes in intracellular Ca^2+ of the human bitter taste receptor. […] The increase in fluorescence intensity ratio (F340/F380) with 10 mM salicin was expressed as 100. […] In addition to salicin, hTAS2R16 also recognizes bitter sugars such as phenyl β-D-glucopyranoside and arbutin, a glycosylated hydroquinone extracted from the bearberry plant in the genus Arctostaphylos.
(A) Chemical structures of tested compounds. Summarized data (B) and representative traces (C) showing responses of HEK293T cells co-expressing hTAS2R16 and Gα16gust44 to 10 mM salicin in the absence and presence of umami substances in a cell-based assay. (D,E) Representative ratiometric images of fura-2-loaded hTAS2R16-expressing cells in response to the other ligands, 5 mM arbutin (D) or phenyl β-D-glucopyranoside (E), in the presence of umami substances. The data were normalized as percentages to the maximal signal obtained with the ligands. The color scale indicates the F340/F380 ratio. Scale bar: 11.04 μm. Data are presented as means ± standard error of the mean (SEM) of at least three separate experiments. * p < 0.05, ** p < 0.01, and *** p < 0.001 vs. the 0 mM sample group by Student’s t-test.
as §2, with “Following treatment, the fluorescence intensity (excitation, 486 nm; emission, 525 nm) of the cell was measured.” left out
Cells were seeded onto 96-well black-wall imaging plates (BD Falcon Labware) for 18–26 h prior to their use in an experiment. […] The cells were rinsed with the buffer, incubated in probenecid or sample for 30 min, and then treated with solution containing the ligand. The Fura-2AM-induced fluorescence intensity (excitation at 340 and 380 nm) was measured at emission wavelength of 510 nm using a computer-controlled filter changer (Lambda DG4; Sutter, San Rafael, CA, USA), an Andor Luca CCD camera (Andor Technology, Belfast, UK), and an inverted fluorescence microscope (IX-71; Olympus, Tokyo, Japan). Images were obtained at 3-s intervals and analyzed using MetaFluor software (Molecular Devices, Sunnyvale, CA, USA).

umami taste [3] = conditions: cited from earlier work
umami taste [4] = test: Human sensory evaluation of umami taste (literature); format: in vivo; conditions: from cited thresholds
[5] = Table 3, pretreatment with sample 80 mM
[6] = IC50 in the presence of 10 mM salicin, Table 2, + IMP 0 mM, means ± SEM
[7] = IC50 of umami substances in the presence of 10 mM salicin, Figure 2B, pretreatment with sample, fixed 10 mM salicin, means ± SEM
[8] = Table 1, pretreatment with sample 10 mM
[9] = Table 1, pretreatment with sample 30 mM
[10] = Table 1, pretreatment with sample 80 mM
[11] = Table 1, pretreatment with sample 100 mM

## OCc1ccccc1O[C@@H]1O[C@H](CO)[C@@H](O)[C@H](O)[C@H]1O [Salicin]
hTAS2R16 N96T; Table 3, sample 0 mM
  Maximal Response of salicin, N96T: 0.66 ΔF/F0 and 0.63 ΔF/F0 and 0.68 ΔF/F0 and 0.61 ΔF/F0
hTAS2R16 N96T; Table 3, sample 0 mM, read-out: EC50 of salicin, N96T
  EC50: 200 µM (2×) and 230 µM and 250 µM and 180 µM
hTAS2R16 N96T; salicin 0.003–30 mM
  intracellular Ca2+ response induced by ligand, N96T mutant: induced intracellular Ca^2+ response
hTAS2R16 P44T; Table 3, sample 0 mM
  Maximal Response of salicin, P44T: 0.61 ΔF/F0 and 0.59 ΔF/F0 and 0.56 ΔF/F0 and 0.62 ΔF/F0
hTAS2R16 P44T; Table 3, sample 0 mM, read-out: EC50 of salicin, P44T
  EC50: 690 µM and 750 µM and 640 µM and 620 µM and 680 µM
hTAS2R16 P44T; salicin 0.003–30 mM
  intracellular Ca2+ response induced by ligand, P44T mutant: induced intracellular Ca^2+ response
hTAS2R16 [1]; Table 1, salicin 0–30 mM, sample 0 mM
  Maximal Response of salicin: 0.51 ΔF/F0 and 0.54 ΔF/F0 and 0.56 ΔF/F0
hTAS2R16 [1]; Table 1, salicin 0–30 mM, sample 0 mM, means ± SEM, read-out: EC50 of salicin
  EC50: 1.04 mM (2×) and 920 µM and 890 µM and 900 µM
hTAS2R16 [1]; Table 3, sample 0 mM
  Maximal Response of salicin, WT: 0.54 ΔF/F0 and 0.56 ΔF/F0 and 0.51 ΔF/F0
hTAS2R16 [1]; Table 3, sample 0 mM, read-out: EC50 of salicin, WT
  EC50: 960 µM and 900 µM and 1040 µM and 1070 µM
hTAS2R16 [1]; salicin 0.003–30 mM
  intracellular Ca2+ response induced by ligand, WT receptor: induced intracellular Ca^2+ response

## OC[C@H]1O[C@@H](Oc2ccccc2)[C@H](O)[C@@H](O)[C@@H]1O [phenyl β-D-glucopyranoside]
hTAS2R16 [2]
  Ca2+ response of cells expressing TAS2R16 on stimulation with ligand: increase in Ca^2+

## CCNC(=O)CC[C@H](N)C(=O)O [L-Theanine, γ-glutamylethylamide]
hTAS2R16 N96T; [5]
  Maximal Response of salicin, N96T: 0.66 ΔF/F0
hTAS2R16 N96T; salicin 0.003–30 mM, probenecid 0.3 mM, Glu-Glu 6 mM, L-theanine 80 mM
  attenuation of salicin response by pretreatment, N96T mutant: not in cells expressing the two N96T and P44T mutant receptors
Umami taste [3]
  detection threshold: 25 mM
hTAS2R16 [2]
  inhibition of Ca2+ response to arbutin: significantly inhibited
  reduction of intracellular Ca2+ influx evoked by salicin: concentration-dependent reduction
  inhibition of Ca2+ response to phenyl β-D-glucopyranoside: significantly inhibited
Umami taste [4]; L-theanine vs MSG
  detection threshold, times lower than that of MSG: roughly 36 times
hTAS2R16 P44T; [5]
  Maximal Response of salicin, P44T: 0.56 ΔF/F0
hTAS2R16 P44T; salicin 0.003–30 mM, probenecid 0.3 mM, MSG 80 mM, L-theanine 80 mM
  attenuation of salicin response by pretreatment, P44T mutant: not in cells expressing the two N96T and P44T mutant receptors
hTAS2R16 [1]
  synergistic effect with IMP on suppression of salicin response: produce similar synergistic effects with IMP
  mechanism of antagonism at hTAS2R16: partial insurmountable antagonists
hTAS2R16 [1]; [6]
  IC50: 77330 ± 50 µM
hTAS2R16 [1]; [7]
  IC50: 62000 µM and 61700 µM
hTAS2R16 [1]; [8]
  Maximal Response of salicin: 0.53 ΔF/F0
hTAS2R16 [1]; [9]
  Maximal Response of salicin: 0.50 ΔF/F0
hTAS2R16 [1]; [10]
  Maximal Response of salicin: 0.43 ΔF/F0
hTAS2R16 [1]; [11]
  Maximal Response of salicin: 0.31 ΔF/F0
hTAS2R16 [1]; [5]
  Maximal Response of salicin, WT: 0.43 ΔF/F0
hTAS2R16 [1]; salicin 0.003–30 mM, probenecid 0.3 mM, L-theanine 80 mM
  attenuation of salicin response by pretreatment, WT receptor: significantly attenuated

## OC[C@H]1O[C@@H](Oc2ccc(O)cc2)[C@H](O)[C@@H](O)[C@@H]1O [arbutin]
hTAS2R16 [2]
  Ca2+ response of cells expressing TAS2R16 on stimulation with ligand: increase in Ca^2+

## N[C@@H](CCC(=O)O)C(=O)O [MSG, L-glutamic acid monosodium salt hydrate]
hTAS2R16 N96T; [5]
  Maximal Response of salicin, N96T: 0.65 ΔF/F0
Umami taste [3]
  detection threshold: 0.7 mM
Umami taste [3]; enhancing umami taste intensity, MSG = 1.0
  umami taste intensity (relative): 1.0
Umami taste [3]; human sensory evaluation studies
  umami taste threshold: 30 mg%
hTAS2R16 [2]
  inhibition of Ca2+ response to arbutin: significantly inhibited
  reduction of intracellular Ca2+ influx evoked by salicin: concentration-dependent reduction
  inhibition of Ca2+ response to phenyl β-D-glucopyranoside: significantly inhibited
Umami taste [4]; MSG vs Glu-Glu
  umami taste threshold, times lower than Glu-Glu: around 10 times
hTAS2R16 P44T; [5]
  Maximal Response of salicin, P44T: 0.57 ΔF/F0
hTAS2R16 [1]
  synergistic effect with IMP on suppression of salicin response: produce similar synergistic effects with IMP
  mechanism of antagonism at hTAS2R16: surmountable antagonist
hTAS2R16 [1]; [6]
  IC50: 64670 ± 40 µM
hTAS2R16 [1]; [7]
  IC50: 51000 µM and 51100 µM
hTAS2R16 [1]; [8]
  Maximal Response of salicin: 0.55 ΔF/F0
hTAS2R16 [1]; [9]
  Maximal Response of salicin: 0.54 ΔF/F0
hTAS2R16 [1]; [10]
  Maximal Response of salicin: 0.49 ΔF/F0
hTAS2R16 [1]; [11]
  Maximal Response of salicin: 0.47 ΔF/F0
hTAS2R16 [1]; [5]
  Maximal Response of salicin, WT: 0.49 ΔF/F0
hTAS2R16 [1]; sample at highest concentration, 100 mM
  increase of the EC50 of salicin: 8.5 fold

## Gly-Gly
hTAS2R16 [2]
  inhibition of Ca2+ response to arbutin: not
  reduction of intracellular Ca2+ influx evoked by salicin: not
  inhibition of Ca2+ response to phenyl β-D-glucopyranoside: not

## N[C@@H](CCC(=O)O)C(=O)N[C@@H](CCC(=O)O)C(=O)O [Glu-Glu] (H-Glu-Glu-OH)
hTAS2R16 [1]; [6]
  IC50: 7250 ± 20 µM
hTAS2R16 [1]; [7]
  IC50: 8620 ± 30 µM
